Source: US12599672B2, “KRAS proteolysis targeting chimeras” (PAQ Therapeutics Inc., priority 2023, dated 2026)

Tests used:
Assay type in all cases: cell-based
KRAS = target: T1, KRAS (Homo sapiens, UniProt P01116); assay: KRASamp MSD assay; conditions: KE39 (KRAS amplified) cells, treated with test compounds for 24 hr, MSD readout of KRAS degradation
T1 construct: endogenous in cells; host or cells: KE39 (KRAS amplified) cells
Procedure: KE39 (KRAS amplified) cells were cultured in RPMI 1640 medium (Gibco, 11875093), seeded into 96 well plate and treated with test compounds for 24 hr. The cells were washed with PBS and lysed in plate for 1 hr at 4° C. with agitation in RIPA buffer (Cat No. BP-115D) supplemented with protease and phosphatase inhibitor cocktail. The lysates were loaded into MSD plate coated with KRAS capture antibody (LSBio, C175665, 1:1000) for 1 h at RT with agitation. The plate was then washed three times with TBST and incubated with KRAS detection antibody (Abcam, Ab275876. 1:2000) for 1 h at RT. After washing three times with TBST, the plate was incubated with secondary detection antibody GAR (1:500) for 1 hr at RT followed with 3×TBST washing. 2×MSD reading buffer was added into individual wells and the plate was finally read by MSD reader (MSD, SQ 120 MM). The recombinant WT KRAS protein was used for standard curve generation and protein quantification. The degradation activity was calculated using the following formula: […]
DC50 was calculated by fitting the curve using GraphPad Prism v8.0.2 (analysis 263): […]

KRAS G12D = target: T2, KRAS G12D (Homo sapiens, UniProt P01116, G12D); assay: KRAS G12D HiBit assay; conditions: AsPc-1-KRAS (G12D)-HiBit-KI cell, compound treatment for 24 hours, absolute DC50
T2 construct: AsPc-1-KRAS (G12D)-HiBit-KI cell (Pharmaron); host or cells: AsPc-1-KRAS (G12D)-HiBit-KI cells (HiBiT knock-in at the endogenous KRAS locus)
T2 sequence (P01116 1-188 isoform P01116-2 G12D): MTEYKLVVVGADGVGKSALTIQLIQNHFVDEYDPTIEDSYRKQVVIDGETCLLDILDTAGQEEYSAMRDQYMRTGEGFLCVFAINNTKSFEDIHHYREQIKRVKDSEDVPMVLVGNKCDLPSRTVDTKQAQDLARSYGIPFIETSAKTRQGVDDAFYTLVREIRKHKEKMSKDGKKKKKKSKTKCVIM
In short: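 Cells were treated for 24 h with compounds in a 3-fold, 10-point dilution series from a 0.3 mM DMSO stock, then equilibrated 15 min at room temperature. KRAS G12D HiBiT levels were read by luminescence after lytic Nano-Glo HiBiT reagent with LgBiT; inhibition calculated relative to 0.1% DMSO high control.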

KRAS G12V = target: T3, KRAS G12V (Homo sapiens, UniProt P01116, G12V); assay: KRAS G12V HiBit assay; conditions: SW620-KRAS (G12V)-HiBit-KI cells, compound treatment for 24 hours, class symbols
T3 construct: SW620-KRAS (G12V)-HiBit-KI cell (Pharmaron); host or cells: SW620-KRAS (G12V)-HiBit-KI cells (HiBiT knock-in at the endogenous KRAS locus)
T3 sequence (P01116 1-188 isoform P01116-2 G12V): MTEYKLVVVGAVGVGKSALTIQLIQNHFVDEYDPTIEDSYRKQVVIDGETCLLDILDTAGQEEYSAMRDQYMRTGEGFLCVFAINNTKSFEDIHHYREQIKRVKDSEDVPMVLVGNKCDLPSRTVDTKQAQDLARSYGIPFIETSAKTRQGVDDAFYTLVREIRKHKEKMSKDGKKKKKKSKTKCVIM
In short: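 HiBiT-tagged KRAS G12V cells treated 24 h with compound in a 3-fold, 10-point series (0.3 mM DMSO stock); lytic HiBiT reagent with LgBiT added after 15 min room-temperature equilibration. Degradation calculated against 0.1% DMSO high control.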

T1 sequence (P01116 1-188 isoform P01116-2): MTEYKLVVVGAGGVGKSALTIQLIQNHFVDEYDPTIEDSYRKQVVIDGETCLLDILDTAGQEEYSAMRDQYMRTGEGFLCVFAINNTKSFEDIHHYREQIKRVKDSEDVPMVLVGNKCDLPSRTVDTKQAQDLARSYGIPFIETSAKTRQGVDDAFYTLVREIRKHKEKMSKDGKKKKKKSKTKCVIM

Compound | DC50 (KRAS) [nM] | DC50 (KRAS G12D; class symbols) [nM] | DC50 (KRAS G12V) [nM] | DC50 (KRAS G12D; numeric bounds given in place of class symbols) [nM]
CCc1c(F)ccc2cc(O)cc(-c3ncc4c(N5CCC[C@](C)(O)C5)nc(OC[C@]56CCCN5[C@@H](COC(=O)N5CC7CCC(C5)C7CN5CCC(c7ccc8c(c7)n(C)c(=O)n8C7CCC(=O)NC7=O)CC5)CC6)nc4c3F)c12 (stereo partly drawn) [Compound 391, ((3R,7aR)-7a-(((7-(8-ethyl-7-fluoro-3-hydroxynaphthalen-1-yl)-8-fluoro-4-((S)-3-hydroxy-3-methylpiperidin-1-yl)pyrido[4,3-d]pyrimidin-2-yl)oxy)methyl)hexahydro-1H-pyrrolizin-3-yl)methyl 8-((4-(1-(2,6-dioxopiperidin-3-yl)-3-methyl-2-oxo-2,3-dihydro-1H-benzo[d]imidazol-5-yl)piperidin-1-yl)methyl)-3-azabicyclo[3.2.1]octane-3-carboxylate] | < 1 | < 100 | < 10 | –
CCc1c(F)ccc2cc(O)cc(-c3ncc4c(N5CCC[C@@](C)(O)C5)nc(OC[C@@]56CCCN5C(CN5CCC(OCCCc7ccc8c(c7)n(C)c(=O)n8C7CCC(=O)NC7=O)CC5)CC6)nc4c3F)c12 (stereo partly drawn) [Compound 384, 3-(5-(3-((1-(((35,7aS)-7a-(((7-(8-Ethyl-7-fluoro-3-hydroxynaphthalen-1-yl)-8-fluoro-4-((R)-3-hydroxy-3-methylpiperidin-1-yl)pyrido[4,3-d]pyrimidin-2-yl)oxy)methyl)hexahydro-1H-pyrrolizin-3-yl)methyl)piperidin-4-yl)oxy)propyl)-3-methyl-2-oxo-2,3-dihydro-1H-benzo[d]imidazol-1-yl) piperidine-2,6-dione] | 1 to 10 | < 100 | 10 to 100 | –
CCc1c(F)ccc2cc(O)cc(-c3ncc4c(N5CCCOCC5)nc(OC[C@]56CCCN5[C@H](COC(=O)N5CCC(CN7CCC(c8ccc9c(c8)n(C)c(=O)n9C8CCC(=O)NC8=O)CC7)CC5)CC6)nc4c3F)c12 (stereo partly drawn) [Compound 423, ((3S,7aR)-7a-(((7-(8-ethyl-7-fluoro-3-hydroxynaphthalen-1-yl)-8-fluoro-4-(1,4-oxazepan-4-yl)pyrido[4,3-d]pyrimidin-2-yl)oxy)methyl)hexahydro-1H-pyrrolizin-3-yl)methyl 4-((4-(1-(2,6-dioxopiperidin-3-yl)-3-methyl-2-oxo-2,3-dihydro-1H-benzo[d]imidazol-5-yl)piperidin-1-yl)methyl)piperidine-1-carboxylate] | < 1 | < 100 | < 10 | –
CCc1c(F)ccc2cc(O)cc(-c3ncc4c(N5CCCCC5)nc(OC[C@@]56CCCN5[C@H](COC(=O)N5CCC7(CC5)CC(N5CCC(c8ccc9c(c8)n(C)c(=O)n9C8CCC(=O)NC8=O)CC5)C7)CC6)nc4c3F)c12 (stereo partly drawn) [Compound 367, ((3S,7aS)-7a-(((7-(8-ethyl-7-fluoro-3-hydroxynaphthalen-1-yl)-8-fluoro-4-(piperidin-1-yl)pyrido[4,3-d]pyrimidin-2-yl)oxy)methyl)hexahydro-1H-pyrrolizin-3-yl)methyl 2-(4-(1-(2,6-dioxopiperidin-3-yl)-3-methyl-2-oxo-2,3-dihydro-1H-benzo[d]imidazol-5-yl)piperidin-1-yl)-7-azaspiro[3.5]nonane-7-carboxylate] | < 1 | < 100 | < 10 | –
C#Cc1c(F)ccc2cc(O)cc(-c3ncc4c(N5CCC[C@@](C)(O)C5)nc(OC[C@@]56CCCN5[C@H](COC(=O)N5CCC7(CCC7N7CCC(c8ccc9c(c8)n(C)c(=O)n9C8CCC(=O)NC8=O)CC7)CC5)CC6)nc4c3F)c12 (stereo partly drawn) [Compound 415, ((3S,7aS)-7a-(((7-(8-ethynyl-7-fluoro-3-hydroxynaphthalen-1-yl)-8-fluoro-4-((R)-3-hydroxy-3-methylpiperidin-1-yl)pyrido[4,3-d]pyrimidin-2-yl)oxy)methyl)hexahydro-1H-pyrrolizin-3-yl)methyl 1-(4-(1-(2,6-dioxopiperidin-3-yl)-3-methyl-2-oxo-2,3-dihydro-1H-benzo[d]imidazol-5-yl)piperidin-1-yl)-7-azaspiro[3.5]nonane-7-carboxylate] | ≥ 10 | < 100 | > 100 | –
C#Cc1c(F)ccc2cc(O)cc(-c3ncc4c(N5CCC[C@@](C)(O)C5)nc(OC[C@@]56CCCN5[C@H](COC(=O)N5CCC(CC#Cc7ccc8c(c7)n(C)c(=O)n8C7CCC(=O)NC7=O)CC5)CC6)nc4c3F)c12 (stereo partly drawn) [Compound 375, ((3S,7aS)-7a-(((7-(8-ethynyl-7-fluoro-3-hydroxynaphthalen-1-yl)-8-fluoro-4-((R)-3-hydroxy-3-methylpiperidin-1-yl)pyrido[4,3-d]pyrimidin-2-yl)oxy)methyl)hexahydro-1H-pyrrolizin-3-yl)methyl 4-(3-(1-(2,6-dioxopiperidin-3-yl)-3-methyl-2-oxo-2,3-dihydro-1H-benzo[d]imidazol-5-yl)prop-2-yn-1-yl)piperidine-1-carboxylate] | 1 to 10 | < 100 | < 10 | –
C#Cc1c(F)ccc2cc(O)cc(-c3ncc4c(N5CCC[C@@](C)(O)C5)nc(OC[C@@]56CCCN5[C@H](COC(=O)N5CCC(C7CCN(c8ccc9c(c8)n(C)c(=O)n9C8CCC(=O)NC8=O)CC7)CC5)CC6)nc4c3F)c12 (stereo partly drawn) [Compound 32] | 1 to 10 | – | – | > 100
C#Cc1c(F)ccc2cccc(-c3ncc4c(N5CCCC(C#N)CC5)nc(OC[C@@]56CCCN5[C@H](COC(=O)NCCOCCOc5ccc7c(c5)n(C)c(=O)n7C5CCC(=O)NC5=O)CC6)nc4c3F)c12 (stereo partly drawn) [Compound 117, ((3S,7aS)-7a-(((4-(4-Cyanoazepan-1-yl)-7-(8-ethynyl-7-fluoronaphthalen-1-yl)-8-fluoropyrido[4,3-d]pyrimidin-2-yl)oxy)methyl)hexahydro-1H-pyrrolizin-3-yl)methyl (2-(2-((1-(2,6-dioxopiperidin-3-yl)-3-methyl-2-oxo-2,3-dihydro-1H-benzo[d]imidazol-5-yl)oxy)ethoxy)ethyl) carbamate] | – | > 300 | > 100 | –
C#Cc1c(F)ccc2cc(O)cc(-c3ccc4c(N5CCC[C@@](C)(O)C5)nc(OCC5(CN6CCC(CN7CCN(c8ccc9c(c8)n(C)c(=O)n9C8CCC(=O)NC8=O)CC7)CC6)CC5)nc4c3F)c12 (stereo partly drawn) [Compound 12] | – | < 100 | > 100 | –
C#Cc1c(F)ccc2cccc(-c3ncc4c(N5CCC[C@@](C)(O)C5)nc(OCC5(CN6CCN(CC7CCN(c8cccc9c8n(C)c(=O)n9C8CCC(=O)NC8=O)CC7)CC6)CC5)nc4c3F)c12 (stereo partly drawn) [Compound 78] | – | > 300 | > 100 | –
CCc1c(F)ccc2cc(O)cc(-c3ncc4c(N5CCC[C@@](C)(O)C5)nc(OC[C@@]56CCCN5[C@H](COC(=O)N5CC7C(CN8CCC(c9ccc%10c(c9)n(C)c(=O)n%10C9CCC(=O)NC9=O)CC8)C7C5)CC6)nc4c3F)c12 (stereo partly drawn) [Compound 401, ((3S,7aS)-7a-(((7-(8-ethyl-7-fluoro-3-hydroxynaphthalen-1-yl)-8-fluoro-4-((R)-3-hydroxy-3-methylpiperidin-1-yl)pyrido[4,3-d]pyrimidin-2-yl)oxy)methyl)hexahydro-1H-pyrrolizin-3-yl)methyl 6-((4-(1-(2,6-dioxopiperidin-3-yl)-3-methyl-2-oxo-2,3-dihydro-1H-benzo[d]imidazol-5-yl)piperidin-1-yl)methyl)-3-azabicyclo[3.1.0]hexane-3-carboxylate] | – | < 100 | 10 to 100 | –
C#Cc1c(F)ccc2cc(O)cc(-c3ncc4c(N5CCC[C@@](C)(O)C5)nc(OC[C@@]56CCCN5[C@H](COC(=O)N5CCC(N7CCC(c8ccc9c(c8)n(C)c(=O)n9C8CCC(=O)NC8=O)CC7)CC5)CC6)nc4c3F)c12 (stereo partly drawn) [Compound 129] | – | > 300 | > 100 | –
